The results in this text go back to ChEMBL document CHEMBL3132769, “Fragment growing to retain or alter the selectivity of anchored kinase hinge-binding fragments” (Medchemcomm, 2014).

The target in experiment [1] is Protein kinase C theta type (Homo sapiens) (UniProt Q04759). Kind of experiment: Inhibition of human truncated PKC theta expressed in baculovirus assessed as substrate phosphorylation using fluorescence-labelled peptides as substrate at 2 uM after 90 mins by microfluidic peptide phosphorylation assay.
Chain of Protein kinase C theta type (Homo sapiens) (Q04759 whole entry, looked up, the tested form may be a part): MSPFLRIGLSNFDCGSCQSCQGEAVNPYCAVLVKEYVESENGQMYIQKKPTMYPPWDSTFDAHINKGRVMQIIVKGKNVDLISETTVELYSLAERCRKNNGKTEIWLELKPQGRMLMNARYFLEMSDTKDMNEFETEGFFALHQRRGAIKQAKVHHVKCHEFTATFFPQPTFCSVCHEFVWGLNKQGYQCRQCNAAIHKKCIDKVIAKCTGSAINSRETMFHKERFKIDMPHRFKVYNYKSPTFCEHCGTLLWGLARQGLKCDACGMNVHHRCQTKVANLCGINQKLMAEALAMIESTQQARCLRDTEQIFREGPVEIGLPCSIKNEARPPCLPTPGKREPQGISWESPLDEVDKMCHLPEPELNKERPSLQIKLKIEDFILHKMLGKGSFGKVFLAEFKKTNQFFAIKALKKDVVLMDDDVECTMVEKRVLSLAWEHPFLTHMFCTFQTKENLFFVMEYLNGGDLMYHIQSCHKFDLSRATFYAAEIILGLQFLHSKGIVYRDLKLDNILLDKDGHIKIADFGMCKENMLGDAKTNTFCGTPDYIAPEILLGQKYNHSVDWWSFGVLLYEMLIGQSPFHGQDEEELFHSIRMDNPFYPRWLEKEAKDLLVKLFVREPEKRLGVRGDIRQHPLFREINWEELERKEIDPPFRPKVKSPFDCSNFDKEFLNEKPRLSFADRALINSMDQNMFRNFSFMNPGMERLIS
The target in experiment [2] is T1, Testis-specific serine/threonine-protein kinase 1 (Homo sapiens) (UniProt Q9BXA7).
T1 sequence (whole entry): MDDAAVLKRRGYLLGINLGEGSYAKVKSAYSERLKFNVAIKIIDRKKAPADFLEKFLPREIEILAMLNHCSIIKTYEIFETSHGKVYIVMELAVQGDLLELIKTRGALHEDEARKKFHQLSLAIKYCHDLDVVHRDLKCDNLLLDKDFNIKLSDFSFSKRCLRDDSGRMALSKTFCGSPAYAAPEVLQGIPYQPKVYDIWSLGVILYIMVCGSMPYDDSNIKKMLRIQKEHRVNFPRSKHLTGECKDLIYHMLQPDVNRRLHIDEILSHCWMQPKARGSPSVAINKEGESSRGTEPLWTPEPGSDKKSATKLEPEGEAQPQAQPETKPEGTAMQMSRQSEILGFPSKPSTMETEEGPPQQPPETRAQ
Kind of experiment: Inhibition of human full length TSSK1 expressed in baculovirus assessed as substrate phosphorylation using fluorescence-labelled peptides as substrate at 0.2 uM after 90 mins by microfluidic peptide phosphorylation assay.

Experiment [3] addresses T2, Protein kinase C zeta type (Homo sapiens) (UniProt Q05513).
T2 sequence (whole entry): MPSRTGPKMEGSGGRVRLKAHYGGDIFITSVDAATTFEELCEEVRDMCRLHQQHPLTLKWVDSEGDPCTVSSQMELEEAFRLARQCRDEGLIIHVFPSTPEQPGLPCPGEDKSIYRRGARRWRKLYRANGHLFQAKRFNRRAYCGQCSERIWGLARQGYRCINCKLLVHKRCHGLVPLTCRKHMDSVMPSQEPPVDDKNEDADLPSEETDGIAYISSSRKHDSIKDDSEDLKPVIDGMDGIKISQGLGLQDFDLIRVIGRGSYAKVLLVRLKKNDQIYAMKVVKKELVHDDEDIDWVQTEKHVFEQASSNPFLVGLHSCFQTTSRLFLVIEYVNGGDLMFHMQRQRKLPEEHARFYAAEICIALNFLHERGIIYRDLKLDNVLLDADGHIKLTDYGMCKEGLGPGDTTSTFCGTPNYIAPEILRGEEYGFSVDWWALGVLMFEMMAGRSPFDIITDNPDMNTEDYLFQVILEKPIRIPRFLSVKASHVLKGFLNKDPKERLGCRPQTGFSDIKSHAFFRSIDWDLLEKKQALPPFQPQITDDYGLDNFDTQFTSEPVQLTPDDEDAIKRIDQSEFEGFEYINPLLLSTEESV
Kind of experiment: Inhibition of human full length PKC zeta expressed in baculovirus assessed as substrate phosphorylation using fluorescence-labelled peptides as substrate at 0.06 uM after 90 mins by microfluidic peptide phosphorylation assay.

Experiment [4] deals with T3, Serine/threonine-protein kinase D1 (Homo sapiens) (UniProt Q15139).
T3 sequence (whole entry): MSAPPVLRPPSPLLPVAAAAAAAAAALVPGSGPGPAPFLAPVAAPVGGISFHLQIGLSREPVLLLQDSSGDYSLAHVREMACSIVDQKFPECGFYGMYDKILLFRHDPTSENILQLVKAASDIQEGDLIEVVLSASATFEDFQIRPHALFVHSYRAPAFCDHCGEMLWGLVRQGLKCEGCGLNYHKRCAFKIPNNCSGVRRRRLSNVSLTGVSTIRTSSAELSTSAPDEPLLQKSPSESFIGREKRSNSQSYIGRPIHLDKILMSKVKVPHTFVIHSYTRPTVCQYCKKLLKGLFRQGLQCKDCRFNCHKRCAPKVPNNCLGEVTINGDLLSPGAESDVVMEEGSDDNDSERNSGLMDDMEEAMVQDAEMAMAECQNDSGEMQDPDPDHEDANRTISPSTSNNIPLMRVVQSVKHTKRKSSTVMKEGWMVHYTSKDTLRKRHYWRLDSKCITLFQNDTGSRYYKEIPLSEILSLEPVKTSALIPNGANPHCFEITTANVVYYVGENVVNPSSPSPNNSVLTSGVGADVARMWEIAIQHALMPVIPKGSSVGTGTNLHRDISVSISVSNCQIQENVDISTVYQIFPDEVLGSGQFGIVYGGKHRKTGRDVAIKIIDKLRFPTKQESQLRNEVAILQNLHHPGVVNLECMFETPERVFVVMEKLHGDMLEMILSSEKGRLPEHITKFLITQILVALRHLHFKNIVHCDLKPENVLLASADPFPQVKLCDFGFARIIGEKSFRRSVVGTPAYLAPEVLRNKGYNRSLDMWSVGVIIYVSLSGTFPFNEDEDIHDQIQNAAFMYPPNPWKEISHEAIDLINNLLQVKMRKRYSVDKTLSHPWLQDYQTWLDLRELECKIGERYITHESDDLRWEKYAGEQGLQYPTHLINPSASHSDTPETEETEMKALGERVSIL
Put plainly: Inhibition of human full length PKD1 expressed in baculovirus assessed as substrate phosphorylation using fluorescence-labelled peptides as substrate at 9 uM after 90 mins by microfluidic peptide phosphorylation assay.

The target of experiment [5] is RAC-alpha serine/threonine-protein kinase (Homo sapiens) (UniProt P31749). Put plainly: Inhibition of human AKT1 catalytic domain expressed in baculovirus assessed as substrate phosphorylation using fluorescence-labelled peptides as substrate at 8 uM after 90 mins by microfluidic peptide phosphorylation assay.
Chain of RAC-alpha serine/threonine-protein kinase (Homo sapiens) (P31749 whole entry, the tested form may be a part): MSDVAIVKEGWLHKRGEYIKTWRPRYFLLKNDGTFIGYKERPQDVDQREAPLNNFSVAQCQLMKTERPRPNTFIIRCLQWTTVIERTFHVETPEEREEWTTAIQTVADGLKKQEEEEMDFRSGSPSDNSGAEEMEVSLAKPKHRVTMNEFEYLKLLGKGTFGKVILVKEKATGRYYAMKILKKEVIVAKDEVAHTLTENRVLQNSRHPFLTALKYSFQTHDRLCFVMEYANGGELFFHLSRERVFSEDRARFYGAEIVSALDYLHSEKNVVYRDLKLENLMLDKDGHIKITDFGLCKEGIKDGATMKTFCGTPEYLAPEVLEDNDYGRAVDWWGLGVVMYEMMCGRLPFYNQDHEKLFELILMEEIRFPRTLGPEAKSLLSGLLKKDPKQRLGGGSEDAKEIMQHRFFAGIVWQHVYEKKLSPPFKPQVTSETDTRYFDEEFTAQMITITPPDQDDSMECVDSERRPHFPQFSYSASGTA
For experiment [6], the target named is T4, Serine/threonine-protein kinase Sgk3 (Homo sapiens) (UniProt Q96BR1).
T4 sequence (whole entry): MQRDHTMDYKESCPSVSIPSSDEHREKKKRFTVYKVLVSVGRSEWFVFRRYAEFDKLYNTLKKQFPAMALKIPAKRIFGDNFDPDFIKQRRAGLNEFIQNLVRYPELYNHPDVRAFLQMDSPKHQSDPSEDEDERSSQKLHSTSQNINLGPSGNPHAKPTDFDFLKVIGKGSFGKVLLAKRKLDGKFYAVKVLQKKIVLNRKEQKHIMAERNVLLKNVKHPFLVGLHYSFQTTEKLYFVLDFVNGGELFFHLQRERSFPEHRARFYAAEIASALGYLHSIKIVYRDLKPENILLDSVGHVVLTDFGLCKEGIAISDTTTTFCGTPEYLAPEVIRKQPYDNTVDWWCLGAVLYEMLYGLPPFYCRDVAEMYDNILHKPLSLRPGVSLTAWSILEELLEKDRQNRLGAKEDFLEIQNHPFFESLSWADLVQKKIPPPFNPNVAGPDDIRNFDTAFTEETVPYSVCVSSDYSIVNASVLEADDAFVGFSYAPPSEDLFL
Put plainly: Inhibition of human full length SGK3 expressed in baculovirus assessed as substrate phosphorylation using fluorescence-labelled peptides as substrate at 420 uM after 90 mins by microfluidic peptide phosphorylation assay.

The target in experiment [7] is T3, Serine/threonine-protein kinase D1 (Homo sapiens). Kind of experiment: Inhibition of human full length PKD1 expressed in baculovirus assessed as substrate phosphorylation using fluorescence-labelled peptides as substrate at 420 uM after 90 mins by microfluidic peptide phosphorylation assay.
The target in experiment [8] is Platelet-derived growth factor receptor alpha (Homo sapiens) (UniProt P16234). Put plainly: Inhibition of human PDGFR alpha catalytic domain expressed in baculovirus assessed as substrate phosphorylation using fluorescence-labelled peptides as substrate at 1000 uM after 90 mins by microfluidic peptide phosphorylation assay.
Chain of Platelet-derived growth factor receptor alpha (Homo sapiens) (P16234 whole entry, the tested form may be a part): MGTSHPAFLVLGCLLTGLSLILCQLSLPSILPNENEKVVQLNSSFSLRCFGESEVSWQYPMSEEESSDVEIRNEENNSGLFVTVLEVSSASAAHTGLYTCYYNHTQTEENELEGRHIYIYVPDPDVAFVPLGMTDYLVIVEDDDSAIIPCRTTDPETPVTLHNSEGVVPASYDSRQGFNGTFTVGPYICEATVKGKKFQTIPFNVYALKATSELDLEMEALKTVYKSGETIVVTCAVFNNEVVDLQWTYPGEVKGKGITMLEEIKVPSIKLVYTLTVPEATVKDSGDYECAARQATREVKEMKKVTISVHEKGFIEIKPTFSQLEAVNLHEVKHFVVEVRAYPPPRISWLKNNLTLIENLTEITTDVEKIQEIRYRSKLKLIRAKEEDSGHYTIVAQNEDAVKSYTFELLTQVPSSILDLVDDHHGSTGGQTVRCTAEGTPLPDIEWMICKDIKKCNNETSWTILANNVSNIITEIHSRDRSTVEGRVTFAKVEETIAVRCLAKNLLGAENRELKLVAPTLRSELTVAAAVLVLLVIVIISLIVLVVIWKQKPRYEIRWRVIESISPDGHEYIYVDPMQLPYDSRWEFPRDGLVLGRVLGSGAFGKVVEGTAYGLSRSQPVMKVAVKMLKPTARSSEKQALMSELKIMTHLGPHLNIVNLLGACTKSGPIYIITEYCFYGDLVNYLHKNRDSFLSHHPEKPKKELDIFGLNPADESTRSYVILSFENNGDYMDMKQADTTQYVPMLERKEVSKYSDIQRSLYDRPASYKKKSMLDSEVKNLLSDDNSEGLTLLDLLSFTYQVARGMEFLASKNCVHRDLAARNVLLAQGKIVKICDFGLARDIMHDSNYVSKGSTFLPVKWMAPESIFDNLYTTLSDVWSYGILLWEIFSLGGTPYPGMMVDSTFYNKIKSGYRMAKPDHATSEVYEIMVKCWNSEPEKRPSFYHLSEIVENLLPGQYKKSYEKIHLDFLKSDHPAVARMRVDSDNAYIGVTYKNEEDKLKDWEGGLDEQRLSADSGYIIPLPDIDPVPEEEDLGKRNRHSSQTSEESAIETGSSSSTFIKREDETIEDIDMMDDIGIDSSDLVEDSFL

Each structure is given as a SMILES string.

On to `NC1CCN(c2ncnc3[nH]ccc23)CC1`, for which the inhibition in experiment [1] came to 13%. `Clc1ccc(C2(c3ccc(-c4ncnc5[nH]cnc45)cc3)CCNCC2)cc1`: the inhibition in experiment [2] is 67%. In the case of `NC1(Cc2ccc(Cl)cc2)CCN(c2ncnc3[nH]ccc23)CC1`, the inhibition in experiment [3] worked out at 0%. As for `NCC1CN(c2ncnc3[nH]c4cnccc4c23)CCO1` (stereo not drawn), in experiment [4], the inhibition was 76%. Take `NCC1CCN(c2ncnc3[nH]ccc23)CC1`: the inhibition in experiment [5] was found to be 96%.

`c1nc(N2CCOCC2)c2nc[nH]c2n1`: the inhibition in experiment [6] was determined as 63%; in experiment [7], 70%. Turning to `c1cnc2[nH]ccc2c1`, the inhibition in experiment [8] amounted to 31.5%.
